US20250144125A1 (priority 2021, published 2025)
Like-named read-outs stand apart in the source and are kept apart here. Marks after values point to notes of the source that are not given here.

Experiments:
MERS-CoV (EMC strain) = assay: microbe, parasite or virus in culture; format: cell-based
[1] = system: measles virus (CC strain); assay: microbe, parasite or virus in culture; format: cell-based
[2] = system: tacaribe virus (TRVL11573 strain); assay: microbe, parasite or virus in culture; format: cell-based; conditions: for EC50: read-out: Tacaribe virus EC50 TRVL 11573 strain
[3] = system: influenza A (H1N1) virus (California/07/2009 strain); assay: microbe, parasite or virus in culture; format: cell-based
[4] = system: human norovirus genogroup I NoV (Norwalk virus replicon) in HG23 cells; assay: Human norovirus antiviral assay, qRT PCR in HG23 NoV replicon cells; format: cell-based; conditions: for EC50: Norwalk virus, HG23 Nov replicon cells, qRT PCR intracellular RNA, read-out: EC50 human norovirus
[5] = system: chikungunya virus (S27 strain); assay: microbe, parasite or virus in culture; format: cell-based
[6] = system: dengue virus 2 (New Guinea C strain); assay: microbe, parasite or virus in culture; format: cell-based
[7] = system: enterovirus-71 (Tainan/4643/98 strain); assay: organism not typed; format: cell-based
Vero 76 cells = conditions: read-out: MERS-CoV CC50 Vero 76; Neutral Red; MERS-CoV screen
in vitro [8] = conditions: African green monkey
in vitro [9] = conditions: dog
[10] = Cytotoxicity in the human norovirus replicon assay (HG23 cells); conditions: human, HG23 Nov replicon cells
in vitro [11] = conditions: African green monkey; remark: listed apart in the source
[12] = system: yellow fever virus (YFV 17D strain); assay: microbe, parasite or virus in culture; format: cell-based
in vitro [13] = conditions: human
Vero cells = conditions: African green monkey
[14] = Middle East respiratory syndrome-related coronavirus, Vero 76, read-out: MERS-CoV EC50 EMC strain
[15] = read-out: MERS-CoV EC50 EMC strain
[16] = Measles morbillivirus, Vero 76, read-out: Measles EC50 CC strain
[17] = read-out: Measles EC50 CC strain
[18] = Mammarenavirus tacaribeense, Vero
[19] = Influenza A virus, H1N1, MDCK, read-out: EC50 California/07/2009 strain
[20] = Chikungunya virus, Vero 76, read-out: EC50 chikungunya virus
[21] = Dengue virus, Huh-7, read-out: EC50 dengue virus 2
[22] = Vero 76, read-out: EC50 enterovirus-71
[23] = read-out: Yellow fever virus CC50 Huh7, Neutral Red, YFV screen
[24] = read-out: Yellow fever virus CC50 Huh7, Visual, YFV screen
[25] = Yellow fever virus, Huh-7, read-out: Yellow fever virus EC50 YFV 17D strain
[26] = read-out: Yellow fever virus EC50 YFV 17D strain

| SMILES | EC50 (MERS-CoV (EMC strain); [14]) | EC50 (MERS-CoV (EMC strain); [15]) | EC50 [1, 16] | EC50 [1, 17] | EC50 [2, 18] | EC50 [3, 19] | EC50 [4] | EC50 [5, 20] | EC50 [6, 21] | EC50 ([6]; read-out: EC50 dengue virus 2) | EC50 [7, 22] | CC50 (Vero 76 cells) | CC50 (Huh7 cells; [23]) | CC50 (in vitro [8]; MERS-CoV CC50 Vero 76) | CC50 (in vitro [9]; CC50 MDCK) | CC50 at 3 days [10] | EC50 [12, 25] | CC50 (Huh7 cells; human) | CC50 (in vitro [13]; CC50) | CC50 (in vitro [13]; Yellow fever virus CC50 Huh7) | also measured |
| --- | --- | --- | --- | --- | --- | --- | --- | --- | --- | --- | --- | --- | --- | --- | --- | --- | --- | --- | --- | --- | --- |
| C=Cc1cn([C@@H]2O[C@H](CO)[C@@H](O)[C@H]2O)c2ncnc(CC)c12 [3.1m, 6-Ethyl-7-vinyl-9-β-D-ribofuranosyl-7-deazapurine] | 22 µM | 14 µM | 25 µM | 43 µM | > 100 µM | > 100 µM | 3.35 µM | > 100 µM | 32 µM | > 19 µM | > 100 µM | > 100 µM | 20 µM | > 100 µM | > 100 µM | 14.6 µM |  |  |  |  | activity against human norovirus in words [4]: no promising activity; CC50 (Huh7 cells; [24]): 4.6 µM |
| CCc1ncnc2c1c(C#CC1CC1)cn2[C@@H]1O[C@H](CO)[C@@H](O)[C@H]1O [3.1n, 6-Ethyl-7-cyclopropylethynyl-9-β-D-ribofuranosyl-7-deazapurine] | 10 µM | 5.7 µM | 64 µM | 33 µM | > 100 µM | > 100 µM | 0.062 µM | > 100 µM | 13 µM | > 8.3 µM | > 100 µM | > 100 µM | 21 µM | 100 µM | > 100 µM | 0.342 µM |  |  |  |  | activity against MERS-CoV in words (MERS-CoV (EMC strain)): moderately active with low selectivity index; activity against human norovirus in words [4]: no promising activity; CC50 (Huh7 cells; [24]): 100 µM; CC50 (in vitro [8]; CC50): > 100 µM; CC50 (in vitro [8]; Measles CC50 Vero 76): > 100 µM; CC50 (in vitro [11]; Tacaribe virus CC50 Vero): > 100 µM |
| CCc1ncnc2c1c(Br)cn2[C@@H]1O[C@H](CO)[C@@H](O)[C@H]1O [3.1q, 6-Ethyl-7-bromo-9-β-D-ribofuranosyl-7-deazapurine] | > 100 µM |  | > 100 µM |  | > 100 µM | > 100 µM |  |  | > 68 µM | > 47 µM | > 100 µM | > 100 µM | > 100 µM | > 100 µM | > 100 µM |  | > 100 µM | 47 µM | 68 µM | > 100 µM |  |
| NC(=O)c1ncn([C@@H]2O[C@H](CO)[C@@H](O)[C@H]2O)n1 [Ribavirin, ribavirin, reference compound] |  |  |  |  | 9.2 µg/mL | 2.2 µg/mL |  |  |  |  |  |  |  |  | > 1000 µg/mL |  |  |  |  |  | Tacaribe virus EC50 TRVL 11573 strain [2]: 7.8^d μg/mL; EC50 California/07/2009 strain [3]: 2.4^d μg/mL; EC50 ([3]; Influenza A virus, H1N1, MDCK, read-out: EC50 Influenza A (H1N1)): 10.2 µM; CC50 (Vero cells): > 3600 µM; Tacaribe virus CC50 Vero (Vero cells): 970^d μg/mL; CC50 (in vitro [11]; CC50): > 2950 µM; CC50 (in vitro [11]; Tacaribe virus CC50 Vero): > 1000 µg/mL; CC50 (in vitro [9]; CC50): > 4100 µM |
| OC[C@H]1O[C@@H](n2ccc3c(C#Cc4cccc(F)c4)ncnc32)[C@H](O)[C@@H]1O [3.1i, 6-((3-Fluorophenyl)ethynyl)-9-β-D-ribofuranosyl-7-deazapurine] | > 32 µM |  | 3.2 µM | 3.6 µM | > 12 µM |  |  | > 32 µM | 2.6 µM | 2.7 µM | > 32 µM |  | 30 µM | 32 µM |  |  | 1.2 µM | 22 µM | 24 µM | 32 µM | EC50 [2]: > 11 µM; EC50 [12, 26]: 0.85 µM; EC50 ([5]; read-out: EC50 chikungunya virus): > 30 µM; EC50 ([7]; read-out: EC50 enterovirus-71): > 28 µM; CC50 (Vero cells): 11 µM; CC50 (in vitro [8]; Measles CC50 Vero 76): 24 µM; CC50 (in vitro [11]; Tacaribe virus CC50 Vero): 12 µM |
| C#Cc1cn([C@@H]2O[C@H](CO)[C@@H](O)[C@H]2O)c2ncnc(CC)c12 [3.1l, 6-Ethyl-7-ethynyl-9-β-D-ribofuranosyl-7-deazapurine] |  |  | 72 µM | > 100 µM | > 100 µM | 0.34 µM | 0.393 µM | > 100 µM | > 100 µM | > 51 µM | > 100 µM | > 100 µM | 92 µM | > 100 µM | > 100 µM | 0.455 µM | > 100 µM | 51 µM |  | > 100 µM | EC50 [12, 26]: > 92 µM; EC50 ([3]; read-out: EC50 California/07/2009 strain): 0.52 µM; activity against human norovirus in words [4]: no promising activity |
| C[C@@]1(O)[C@H](O)[C@@H](CO)O[C@H]1n1ccc(N)nc1=O [2′C Methyl Cytidine, 2′-C-Methylcytidine, reference compound] |  |  |  |  |  |  | 1.57 µM |  |  |  |  |  |  |  |  | > 25 µM |  |  |  |  |  |
| Nc1ccn([C@@H]2O[C@H](CO)[C@@H](O)[C@H]2F)c(=O)n1 [2′-Fluoro-2′-deoxycytidine, 2′-fluoro-2′-deoxycytidine, reference compound] |  |  | 1 µg/mL |  |  |  |  |  |  |  |  |  |  |  |  |  |  |  |  |  | Measles EC50 CC strain [1]: 0.95^d μg/mL; CC50 (in vitro [8]; Measles CC50 Vero 76): > 100 µg/mL |
| CCc1ncnc2c1c(I)cn2[C@@H]1O[C@H](CO)[C@@H](O)[C@H]1O [3.1o, 6-Ethyl-7-iodo-9-β-D-ribofuranosyl-7-deazapurine] | > 100 µM | 68 µM | 100 µM | > 100 µM | > 100 µM | > 100 µM |  | > 100 µM | > 68 µM | > 64 µM | > 100 µM | > 100 µM | 85 µM | > 100 µM | > 100 µM |  | > 100 µM | 64 µM | 68 µM | > 100 µM | EC50 [12, 26]: > 85 µM |
| CCc1ncnc2c1c(Cl)cn2[C@@H]1O[C@H](CO)[C@@H](O)[C@H]1O [3.1p, 6-Ethyl-7-chloro-9-β-D-ribofuranosyl-7-deazapurine] | 100 µM | > 100 µM | 100 µM | > 100 µM | 100 µM | > 100 µM |  | > 100 µM | 32 µM | > 38 µM | > 100 µM | > 100 µM | > 100 µM | > 100 µM | > 100 µM |  | > 100 µM | 38 µM | 68 µM | > 100 µM | EC50 [2]: > 100 µM |
